Source: PubChem BioAssay AID1963959 (Molecular Pharmacology Branch, DTP, NCI, 2024)

Tested on: T-47D spheroids with HUVEC/MSC, viability
Assay: Anticancer human tumor T-47D cell line growth inhibition [PI3K];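 also: spheroids exposed to agents for seven days before reading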;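 as to viability, T/C: percent of DMSO vehicle control luminescence so 100% = untreated growth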
Conditions: for IC50: curve of first compound; for viability, T/C: stronger effect = lower value
Method in brief: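 Targeted small molecules plus PI3K inhibitors, half-log dose series from Cmax (default top 10 microM), were applied to heterotypic spheroids of cancer cells with HUVEC and MSCs. Viability indicated growth inhibition.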

[1] = second compound 0.00316 µM, first compound 0.0316 µM
[2] = second compound 0.00316 µM, first compound 0.1 µM
[3] = second compound 0.00316 µM, first compound 0.316 µM
[4] = second compound 0.00316 µM, first compound 1 µM
[5] = second compound 0.00316 µM, first compound 3.16 µM
[6] = second compound 0.00316 µM, first compound 10 µM
[7] = second compound 0.01 µM, first compound 0.0316 µM
[8] = second compound 0.01 µM, first compound 0.1 µM
[9] = second compound 0.01 µM, first compound 0.316 µM
[10] = second compound 0.01 µM, first compound 1 µM
[11] = second compound 0.01 µM, first compound 3.16 µM
[12] = second compound 0.01 µM, first compound 10 µM
[13] = second compound 0.0316 µM, first compound 0.0316 µM
[14] = second compound 0.0316 µM, first compound 0.1 µM
[15] = second compound 0.0316 µM, first compound 0.316 µM
[16] = second compound 0.0316 µM, first compound 1 µM
[17] = second compound 0.0316 µM, first compound 3.16 µM
[18] = second compound 0.0316 µM, first compound 10 µM
[19] = second compound 0.1 µM, first compound 0.0316 µM
[20] = second compound 0.1 µM, first compound 0.1 µM
[21] = second compound 0.1 µM, first compound 0.316 µM
[22] = second compound 0.1 µM, first compound 1 µM
[23] = second compound 0.1 µM, first compound 3.16 µM
[24] = second compound 0.1 µM, first compound 10 µM
[25] = second compound 0.316 µM, first compound 0.0316 µM
[26] = second compound 0.316 µM, first compound 0.1 µM
[27] = second compound 0.316 µM, first compound 0.316 µM
[28] = second compound 0.316 µM, first compound 1 µM
[29] = second compound 0.316 µM, first compound 3.16 µM
[30] = second compound 0.316 µM, first compound 10 µM
[31] = second compound 1 µM, first compound 0.0316 µM
[32] = second compound 1 µM, first compound 0.1 µM
[33] = second compound 1 µM, first compound 0.316 µM
[34] = second compound 1 µM, first compound 1 µM
[35] = second compound 1 µM, first compound 3.16 µM
[36] = second compound 1 µM, first compound 10 µM

SMILES: C=CC(=O)N1CCN(c2nc(=O)n(-c3c(C)ccnc3C(C)C)c3nc(-c4c(O)cccc4F)c(F)cc23)C(C)C1 (stereo not given) + COc1c(OCCCN2CCOCC2)ccc2c3n(c(=NC(=O)c4cnc(N)nc4)nc12)CCN3
- IC50 (second compound 0.00316 µM): > 10000 nM
- IC50 (second compound 0.01 µM): > 10000 nM
- IC50 (second compound 0.0316 µM): > 10000 nM
- IC50 (second compound 0.1 µM): < 31.6 nM
- IC50 (second compound 0.316 µM): < 31.6 nM
- IC50 (second compound 1 µM): < 31.6 nM
- viability, T/C [1]: 100%
- viability, T/C [2]: 124%
- viability, T/C [3]: 106%
- viability, T/C [4]: 108%
- viability, T/C [5]: 101%
- viability, T/C [6]: 113%
- viability, T/C [7]: 101%
- viability, T/C [8]: 91.6%
- viability, T/C [9]: 96.1%
- viability, T/C [10]: 91%
- viability, T/C [11]: 138%
- viability, T/C [12]: 104%
- viability, T/C [13]: 84.5%
- viability, T/C [14]: 67.6%
- viability, T/C [15]: 74.6%
- viability, T/C [16]: 109%
- viability, T/C [17]: 95.6%
- viability, T/C [18]: 90.6%
- viability, T/C [19]: 46.2%
- viability, T/C [20]: 51%
- viability, T/C [21]: 41.1%
- viability, T/C [22]: 45.1%
- viability, T/C [23]: 48.3%
- viability, T/C [24]: 53.1%
- viability, T/C [25]: 21.3%
- viability, T/C [26]: 18.4%
- viability, T/C [27]: 18.2%
- viability, T/C [28]: 21%
- viability, T/C [29]: 20.9%
- viability, T/C [30]: 35%
- viability, T/C [31]: 6.05%
- viability, T/C [32]: 6.58%
- viability, T/C [33]: 5.84%
- viability, T/C [34]: 9.25%
- viability, T/C [35]: 11.6%
- viability, T/C [36]: 19.2%

SMILES: CC(C)NCC(C(=O)N1CCN(c2ncnc3c2C(C)CC3O)CC1)c1ccc(Cl)cc1 (stereo not given) + COc1c(OCCCN2CCOCC2)ccc2c3n(c(=NC(=O)c4cnc(N)nc4)nc12)CCN3
- IC50 (second compound 0.00316 µM): 5280 nM
- IC50 (second compound 0.01 µM): 1600 nM
- IC50 (second compound 0.0316 µM): 324 nM
- IC50 (second compound 0.1 µM): < 31.6 nM
- IC50 (second compound 0.316 µM): < 31.6 nM
- IC50 (second compound 1 µM): < 31.6 nM
- viability, T/C [1]: 92.8%
- viability, T/C [2]: 71%
- viability, T/C [3]: 74.3%
- viability, T/C [4]: 64.8%
- viability, T/C [5]: 50.7%
- viability, T/C [6]: 45.9%
- viability, T/C [7]: 90.7%
- viability, T/C [8]: 74.2%
- viability, T/C [9]: 64%
- viability, T/C [10]: 53.6%
- viability, T/C [11]: 45.3%
- viability, T/C [12]: 38.8%
- viability, T/C [13]: 69.8%
- viability, T/C [14]: 70.9%
- viability, T/C [15]: 50.1%
- viability, T/C [16]: 45.2%
- viability, T/C [17]: 40.6%
- viability, T/C [18]: 38.3%
- viability, T/C [19]: 46.5%
- viability, T/C [20]: 40.7%
- viability, T/C [21]: 34.3%
- viability, T/C [22]: 30.4%
- viability, T/C [23]: 30.2%
- viability, T/C [24]: 26.1%
- viability, T/C [25]: 17.6%
- viability, T/C [26]: 18.4%
- viability, T/C [27]: 16%
- viability, T/C [28]: 17.4%
- viability, T/C [29]: 15.1%
- viability, T/C [30]: 15.6%
- viability, T/C [31]: 5.88%
- viability, T/C [32]: 5.08%
- viability, T/C [33]: 4.99%
- viability, T/C [34]: 5.31%
- viability, T/C [35]: 4.66%
- viability, T/C [36]: 6.36%

SMILES: CCN1CCN(Cc2ccc(Nc3ncc(F)c(-c4cc(F)c5nc(C)n(C(C)C)c5c4)n3)nc2)CC1 + COc1c(OCCCN2CCOCC2)ccc2c3n(c(=NC(=O)c4cnc(N)nc4)nc12)CCN3
- IC50 (second compound 0.00316 µM): > 1000 nM
- IC50 (second compound 0.01 µM): > 1000 nM
- IC50 (second compound 0.0316 µM): 8.3 nM
- IC50 (second compound 0.1 µM): < 3.16 nM
- IC50 (second compound 0.316 µM): < 3.16 nM
- IC50 (second compound 1 µM): < 3.16 nM
- viability, T/C (second compound 0.00316 µM, first compound 0.00316 µM): 81.5%
- viability, T/C (second compound 0.00316 µM, first compound 0.01 µM): 77.9%
- viability, T/C [1]: 83.2%
- viability, T/C [2]: 74.8%
- viability, T/C [3]: 73.2%
- viability, T/C [4]: 88.6%
- viability, T/C (second compound 0.01 µM, first compound 0.00316 µM): 99.1%
- viability, T/C (second compound 0.01 µM, first compound 0.01 µM): 75.3%
- viability, T/C [7]: 70.5%
- viability, T/C [8]: 71.5%
- viability, T/C [9]: 67.6%
- viability, T/C [10]: 72.5%
- viability, T/C (second compound 0.0316 µM, first compound 0.00316 µM): 64%
- viability, T/C (second compound 0.0316 µM, first compound 0.01 µM): 47.8%
- viability, T/C [13]: 41.2%
- viability, T/C [14]: 43.4%
- viability, T/C [15]: 44.6%
- viability, T/C [16]: 56.5%
- viability, T/C (second compound 0.1 µM, first compound 0.00316 µM): 41.3%
- viability, T/C (second compound 0.1 µM, first compound 0.01 µM): 25.1%
- viability, T/C [19]: 27.7%
- viability, T/C [20]: 24.4%
- viability, T/C [21]: 29%
- viability, T/C [22]: 45.3%
- viability, T/C (second compound 0.316 µM, first compound 0.00316 µM): 13%
- viability, T/C (second compound 0.316 µM, first compound 0.01 µM): 12.3%
- viability, T/C [25]: 14.8%
- viability, T/C [26]: 16.3%
- viability, T/C [27]: 23.4%
- viability, T/C [28]: 34.4%
- viability, T/C (second compound 1 µM, first compound 0.00316 µM): 6.17%
- viability, T/C (second compound 1 µM, first compound 0.01 µM): 5.48%
- viability, T/C [31]: 7.16%
- viability, T/C [32]: 6.14%
- viability, T/C [33]: 12.2%
- viability, T/C [34]: 24.2%

SMILES: Cn1ncc(Cl)c1-c1cc(C(=O)NC(CN)Cc2cccc(F)c2)sc1Cl (stereo not given) + COc1c(OCCCN2CCOCC2)ccc2c3n(c(=NC(=O)c4cnc(N)nc4)nc12)CCN3
- IC50 (second compound 0.00316 µM): > 10000 nM
- IC50 (second compound 0.01 µM): > 10000 nM
- IC50 (second compound 0.0316 µM): > 10000 nM
- IC50 (second compound 0.1 µM): < 31.6 nM
- IC50 (second compound 0.316 µM): < 31.6 nM
- IC50 (second compound 1 µM): < 31.6 nM
- viability, T/C [1]: 105%
- viability, T/C [2]: 102%
- viability, T/C [3]: 82.3%
- viability, T/C [4]: 77.4%
- viability, T/C [5]: 66.2%
- viability, T/C [6]: 77.7%
- viability, T/C [7]: 108%
- viability, T/C [8]: 99.8%
- viability, T/C [9]: 80.5%
- viability, T/C [10]: 70.3%
- viability, T/C [11]: 70%
- viability, T/C [12]: 77.7%
- viability, T/C [13]: 94.4%
- viability, T/C [14]: 70.6%
- viability, T/C [15]: 61.5%
- viability, T/C [16]: 65%
- viability, T/C [17]: 65.1%
- viability, T/C [18]: 73.2%
- viability, T/C [19]: 48.8%
- viability, T/C [20]: 46.5%
- viability, T/C [21]: 39.4%
- viability, T/C [22]: 39.2%
- viability, T/C [23]: 55.7%
- viability, T/C [24]: 48.7%
- viability, T/C [25]: 17.2%
- viability, T/C [26]: 20.4%
- viability, T/C [27]: 19.1%
- viability, T/C [28]: 19.6%
- viability, T/C [29]: 24.3%
- viability, T/C [30]: 39.5%
- viability, T/C [31]: 7.39%
- viability, T/C [32]: 7.86%
- viability, T/C [33]: 6.72%
- viability, T/C [34]: 6.88%
- viability, T/C [35]: 15.6%
- viability, T/C [36]: 10.9%

SMILES: Cn1nccc1Nc1nccc(-c2ccn(C(CO)c3ccc(Cl)c(F)c3)c(=O)c2)n1 (stereo not given) + COc1c(OCCCN2CCOCC2)ccc2c3n(c(=NC(=O)c4cnc(N)nc4)nc12)CCN3
- IC50 (second compound 0.00316 µM): > 10000 nM
- IC50 (second compound 0.01 µM): > 10000 nM
- IC50 (second compound 0.0316 µM): > 10000 nM
- IC50 (second compound 0.1 µM): < 31.6 nM
- IC50 (second compound 0.316 µM): < 31.6 nM
- IC50 (second compound 1 µM): < 31.6 nM
- viability, T/C [1]: 107%
- viability, T/C [2]: 94%
- viability, T/C [3]: 94.2%
- viability, T/C [4]: 102%
- viability, T/C [5]: 99.9%
- viability, T/C [6]: 104%
- viability, T/C [7]: 104%
- viability, T/C [8]: 88%
- viability, T/C [9]: 107%
- viability, T/C [10]: 83.6%
- viability, T/C [11]: 103%
- viability, T/C [12]: 86.4%
- viability, T/C [13]: 70%
- viability, T/C [14]: 72.3%
- viability, T/C [15]: 70.1%
- viability, T/C [16]: 77%
- viability, T/C [17]: 67.5%
- viability, T/C [18]: 69.6%
- viability, T/C [19]: 40.9%
- viability, T/C [20]: 39.7%
- viability, T/C [21]: 38.3%
- viability, T/C [22]: 48.5%
- viability, T/C [23]: 46.6%
- viability, T/C [24]: 48.2%
- viability, T/C [25]: 20.7%
- viability, T/C [26]: 20.4%
- viability, T/C [27]: 17.8%
- viability, T/C [28]: 24.5%
- viability, T/C [29]: 20.7%
- viability, T/C [30]: 22.7%
- viability, T/C [31]: 8.45%
- viability, T/C [32]: 6.31%
- viability, T/C [33]: 9.37%
- viability, T/C [34]: 7.73%
- viability, T/C [35]: 9.27%
- viability, T/C [36]: 7.43%
